Patent publication EP0736302A2, “Protease inhibitors, a DNA construct for the expression of a protease and a process for measuring proteases and/or protease inhibitors” (Stichting REGA V.Z.W., priority 1995, dated 1996)
Converted amounts (≈) assume the structure as drawn. “Also recorded” adds a separate entry of the source. Where a name gives a salt, the structure may show the parent alone.

Experiments:
[1] = molecular target: T1, gelatinase B from neutrophils (Homo sapiens, UniProt P14780); experiment: gelatinase microtiter plate assay (digestion of biotinylated gelatin, inhibition factor); assay type: biochemical; parameters: endogenous in cells; host or cells: human neutrophils stimulated with lipopolysaccharide; conditioned medium; conditions: crude neutrophil gelatinase B, '-' = no inhibitory activity
T1 sequence (P14780 94-707): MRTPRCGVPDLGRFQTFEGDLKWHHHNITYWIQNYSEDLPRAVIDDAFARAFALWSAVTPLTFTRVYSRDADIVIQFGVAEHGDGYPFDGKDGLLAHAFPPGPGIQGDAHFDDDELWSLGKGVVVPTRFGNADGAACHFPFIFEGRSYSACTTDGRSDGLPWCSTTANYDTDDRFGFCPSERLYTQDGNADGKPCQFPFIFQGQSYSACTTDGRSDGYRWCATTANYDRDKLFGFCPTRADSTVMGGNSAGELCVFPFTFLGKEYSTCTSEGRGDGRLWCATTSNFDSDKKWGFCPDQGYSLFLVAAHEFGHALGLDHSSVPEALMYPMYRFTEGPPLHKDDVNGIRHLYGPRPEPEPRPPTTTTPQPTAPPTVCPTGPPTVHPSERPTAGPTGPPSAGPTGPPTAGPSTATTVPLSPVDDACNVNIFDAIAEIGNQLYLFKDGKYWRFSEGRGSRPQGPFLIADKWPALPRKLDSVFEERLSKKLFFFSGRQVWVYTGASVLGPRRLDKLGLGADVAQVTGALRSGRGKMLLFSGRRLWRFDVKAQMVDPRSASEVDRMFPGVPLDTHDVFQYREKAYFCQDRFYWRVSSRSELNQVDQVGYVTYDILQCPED
Experimental: The measurement of gelatinase activity was based on the detection of non-degraded biotinylated gelatin with a streptavidin-peroxidase conjugate. This test is based on the biotin-avidin method described by Sorbi et al. (25) but modified to a one plate assay (schematically represented in Fig. 1.). Gelatin (1mg/ml) was dissolved in 0.1 M sodium bicarbonate pH 8.3 by heating to 40°C. Biotin-N-hydroxysuccinimide ester was dissolved in dimethylsulfoxide (Me2SO) and was added to the gelatin in a 15-fold molar excess. The mixture was allowed to react overnight at 4°C and the biotinylated gelatin was then dialyzed against phosphate buffered saline (PBS). Neutrophil granulocyte (Neu) medium was collected from human neutrophils after stimulation with lipopolysaccharide (1µg/ml) overnight at 37°C in Minimal Essential Medium. Cells were removed by 10 min centrifugation at 1000 g. Purified gelatinase was obtained by one-step affinity chromatography of neutrophil medium on a gelatin-sepharose column as described (8).
Modified flat bottom 96-well ELISA plates were coated overnight with 0.5 µg/ml avidin in distilled water. The plates were then blocked with 0.3% bovine serum albumin (BSA, Sigma) in PBS for 1 hour at 37°C. Biotinylated gelatin was diluted to 50 µg/ml and 100µl was added to the avidin-coated wells. After incubation for one hour at 20°C, the plate was rinsed with PBS. Medium containing the secreted gelatinases from human neutrophils (dilution range 1/3-1/3^11) and the inhibitors were diluted in incubation buffer (50 mM Tris-HCl pH 7.5, 10 mM CaCl2, 0.02% (W/V) NaN3, 1% (V/V) Triton X-100) and 100 µl of each were mixed. 190 µl of the mixture was added to the gelatin-coated plates and allowed to digest the gelatin overnight at 37°C. The plates were then washed with PBS and each well was incubated with 100 µl peroxidase-conjugated-streptavidin at a 1:2000 dilution for 1 hour at 37°C. After rinsing the plate, the ABTS substrate was added (0.5 mg/ml solution containing 0.1 M citric acid, 0.2 M Na2HPO4, pH 4.3, 0.07 µl/ml 30% H2O2) and the optical density was read at 405 nm after 10 min. incubation at room temperature.
Gelatin is biotinylated and bound to avidin-coated microtiter plates. By addition of gelatinases the number of free biotin groups decreases and proportionally less streptavidin-peroxidase is bound to the residual substrate. Bound streptavidin-peroxidase activity is measured spectrophotometrically by reaction of peroxide with ABTS. Inhibition of gelatinase is obtained by the addition of inhibitor to a known amount of gelatinase prior to application to the plates. The peroxidase activity increases proportionally with the inhibitory activity.
The titration curves of gelatinase inhibition were always related to a blanc curve and this for enzyme concentrations within the slope of the curve (vertical dotted lines Fig. 3). The decrease in enzyme activity to which the inhibitor-incubated sample corresponded was defined as the inhibition factor (IF).
The titration curves of gelatinase inhibition by tetracyclines were always related to a blanc curve and this for enzyme concentrations within the slope of the curve (vertical dotted lines Fig. 3). The decrease in enzyme activity to which the tetracycline incubated sample corresponded was defined as the inhibition factor (IF).

SJL mice = experiment: acute (hyperacute) experimental allergic encephalomyelitis; conditions: intraperitoneally, equivalent of 27 to 375 µg per mouse daily (Fig. 15)
Experimental: In both hind paws 50µl of this emulsion was injected on day 0. On day 0 and 2, 50µl B.pertussis (200x10^9 bacteria/ml) were injected intraveneously. […] The control group received injections with 0.9% NaCl, used as excipiens. The animals were daily monitored and the disease and mortality were scored.).

Biozzi AB/H mice = experiment: chronic relapsing experimental allergic encephalomyelitis; assay type: in vivo; conditions: 750 µg three times weekly from day 22 onwards, after full-blown disease (Fig. 16)
Gelatinase B [2] = molecular target: T2, Gelatinase B (Homo sapiens, UniProt P14780); experiment: zymography of cerebrospinal fluid of MS / optic neuritis patients with inhibitor; assay type: biochemical; conditions: CSF of MS patients, increasing concentrations (Fig. 13)
T2 construct: Gelatinase A and B, detected by zymography in the cerebrospinal fluid of MS patients; from tissue; host or cells: cerebrospinal fluid of patients with multiple sclerosis or optic neuritis
T2 sequence (P14780 94-707): as above
Experimental: (§1) Quantitative zymography was performed as described (7,8). Briefly, 40 µl of loading buffer was added to 40 µl of each sample and applied on 7.5% polyacrylamide gels which had been co-polymerised with 0.1% (w/v) gelatin. Stacking gels contained 5% polyacrylamide. The gels were run at 4°C for 16h at 90V. The gels were then incubated in washing buffer (50 mM Tris-HCl pH 7.5, 10mM CaCl2, O.O2% (W/V) NaN3, 2.5% (v/v) Triton X-100) at room temperature, 2x20 min to remove sodium dodecyl sulfate and overnight in developing buffer (50 mM Tris-HCl pH 7.5, 10mM CaCl2, O.O2% (w/v) NaN3, 1% (v/v) Triton X-100) at 37°C. […] The sites of gelatinase activity appeared as unstained bands on a blue background and were quantified by computerised image analysis through scanning densitometry with a PDI scanner (Pharmacia, Belgium) and the PDI software package. […]
(§2) Similar results were obtained when pure preparations of gelatinase B were tested or when gelatinase B was measured in the presence of D-penicillamine in body fluids or cell supernatants.
(§3) Figure 13. […] Gelatinase A (---) and B(_) activities in the CSF were measured by zymography in the absence or the presence of increasing concentrations of D-penicillamine. The scanning indices for each patient are calculated at the residual activity in the presence of inhibitor versus the activity without inhibitor. […]

Gelatinase A = molecular target: T3, Gelatinase A (Homo sapiens, UniProt P08253); experiment: as above; assay type: biochemical; conditions: CSF of MS patients, increasing concentrations (Fig. 13)
T3 construct: Gelatinase A and B, detected by zymography in the cerebrospinal fluid of MS patients; from tissue; host or cells: cerebrospinal fluid of patients with multiple sclerosis or optic neuritis
T3 sequence (P08253 110-660): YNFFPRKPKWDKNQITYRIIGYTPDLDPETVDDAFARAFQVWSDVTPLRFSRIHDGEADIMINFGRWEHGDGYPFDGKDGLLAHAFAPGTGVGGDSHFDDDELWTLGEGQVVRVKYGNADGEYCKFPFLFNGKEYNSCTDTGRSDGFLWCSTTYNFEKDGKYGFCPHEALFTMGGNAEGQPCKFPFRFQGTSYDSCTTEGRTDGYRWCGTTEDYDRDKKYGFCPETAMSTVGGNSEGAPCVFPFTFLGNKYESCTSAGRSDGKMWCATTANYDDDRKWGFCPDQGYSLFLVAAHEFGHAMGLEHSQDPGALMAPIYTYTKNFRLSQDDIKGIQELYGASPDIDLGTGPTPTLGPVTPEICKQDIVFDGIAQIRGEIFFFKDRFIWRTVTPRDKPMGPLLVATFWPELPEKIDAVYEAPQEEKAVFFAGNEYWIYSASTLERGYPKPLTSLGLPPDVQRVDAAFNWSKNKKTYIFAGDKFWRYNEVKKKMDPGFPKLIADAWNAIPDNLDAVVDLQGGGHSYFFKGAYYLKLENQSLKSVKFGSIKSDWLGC
Experimental: as §1, §2, §3

[3] = tested on: human monocytic cell line THP-1; experiment: cellular gelatinase B protein and mRNA production (northern blot, zymography); assay type: cell-based; conditions: THP-1, LPS 1µg/ml, retinoic acid 100nM or untreated; DPEN 50 µg/ml; 16 h (Fig. 14)
Experimental: Figure 14. […] Cultures of the human monocytic cell line THP-1 were stimulated with lipopolysaccharide (LPS, 1µg/ml), retinoic acid (RA, 100nM) or left untreated (CO) in the presence or absence of D-penicillamine (DPEN, 50 µg/ml). After 16 h total RNA was extracted and gelatinase B mRNA was measured by northern blot analysis with a human probe (41) (a). Gelatinase B protein in the cell culture fluids was assayed by zymographic analysis on gelatin substrate gels (b).

gelatinase B [4] = experiment: inhibition of homogeneous enzyme (ID50); assay type: biochemical
[5] = molecular target: T1, gelatinase B from neutrophils; experiment: quantitative gelatin zymography with inhibitor in the developing buffer; assay type: biochemical; parameters: A standard preparation of gelatinase B from neutrophils was repetitiously loaded; endogenous in cells; host or cells: human neutrophils; conditions: increasing amounts of inhibitor in developing buffer (Fig. 4)
Experimental: Quantitative zymography was performed as described (7,8). Briefly, 40 µl of loading buffer was added to 40 µl of each sample and applied on 7.5% polyacrylamide gels which had been co-polymerised with 0.1% (w/v) gelatin. Stacking gels contained 5% polyacrylamide. The gels were run at 4°C for 16h at 90V. The gels were then incubated in washing buffer (50 mM Tris-HCl pH 7.5, 10mM CaCl2, O.O2% (W/V) NaN3, 2.5% (v/v) Triton X-100) at room temperature, 2x20 min to remove sodium dodecyl sulfate and overnight in developing buffer (50 mM Tris-HCl pH 7.5, 10mM CaCl2, O.O2% (w/v) NaN3, 1% (v/v) Triton X-100) at 37°C. The gels were then stained in Coomassie brilliant blue R-250 and destained in methanol/acetic acid. The sites of gelatinase activity appeared as unstained bands on a blue background and were quantified by computerised image analysis through scanning densitometry with a PDI scanner (Pharmacia, Belgium) and the PDI software package. For inhibition experiments, the inhibitors were dissolved in the developing buffer at the appropriate concentration. […] The enzyme activity was developed by staining of the substrate with Coomassie blue and quantification of the substrate digestion by scanning densitometry. […] The enzyme activity was developed by staining of the substrate with Coomassie blue and quantification of the substrate digestion by scanning densitometry. […]

[6] = tetracycline concentration 1.67 mg/ml
[7] = tetracycline concentration 3.33 mg/ml
[8] = tetracycline concentration 0,83 mg/ml

Compound	Inhibition factor (IF) [1, 6]	Inhibition factor (IF) [1, 7]	further results
4-epitetracycline HCl	3		
7-aminominocycline HCl		precipitation	
Cc1c2c(c(O)c3c(O)cccc13)C(=O)[C@]1(O)C(=O)C(C(N)=O)=C(O)[C@H](N(C)C)[C@@H]1C2 [4-epianhydrotetracycline HCl]		precipitation	
CN(C)[C@H]1C(O)=C(C(N)=O)C(=O)[C@@]2(O)C(O)=C3C(=O)c4c(O)ccc(Cl)c4[C@@](C)(O)[C@H]3C[C@@H]12 [4-epichlortetracycline HCl]		precipitation	
CN(C)c1ccc(O)c2c1C[C@H]1C[C@H]3[C@@H](N(C)C)C(O)=C(C(N)=O)C(=O)[C@@]3(O)C(O)=C1C2=O [4-epiminocycline HCl]		3	
CN(C)[C@@H]1C(O)=C(C(N)=O)C(=O)[C@@]2(O)C(O)=C3C(=O)c4c(O)cccc4C[C@H]3C[C@@H]12 [6-deoxy-6-demethyltetracycline HCl]	5	8	Inhibition factor (IF) [1, 8]: 3
CC(C)(S)[C@@H](N)C(=O)O [D-penicillamine]			development of disease symptoms (mean disability index), acute EAE (SJL mice): complete blockage; also recorded: inhibits in a dose-dependent way the development of disease symptoms; disease recurrencies (mean clinical score), chronic relapsing EAE (Biozzi AB/H mice): abrogated the disease recurrencies; inhibition of Gelatinase B in cerebrospinal fluid (Gelatinase B [2]): inhibited in a dose-dependent way; inhibition of Gelatinase A in cerebrospinal fluid (Gelatinase A): inhibited in a dose-dependent way; spontaneous and induced levels of gelatinase B protein and mRNA [3]: remained constant; ID50 (gelatinase B [4]): 3 µg/mL (≈ 20.1 µM)
CN(C)[C@@H]1C(=O)C(C(N)=O)=C(O)[C@@]2(O)C(=O)C[C@@H]([C@]3(C)OC(=O)c4c(O)ccc(Cl)c43)C[C@@H]12 [isochlortetracycline HCl]		3	
CN(C)[C@@H]1C(O)=C(C(N)=O)C(=O)[C@@]2(O)C(O)=C3C(=O)c4c(O)cccc4[C@@](C)(O)[C@H]3C[C@@H]12 [tetracycline HCl]	3	8	

The next lines start with results.

Inhibition factor (IF) [1, 6]	Inhibition factor (IF) [1, 7]	Compound	further results
27	45	CN(C)[C@@H]1C(O)=C(C(N)=O)C(=O)[C@@]2(O)C(O)=C3C(=O)c4c(O)ccc(Cl)c4[C@@](C)(O)[C@H]3C[C@@H]12 [chlortetracycline HCl]	Inhibition factor (IF) [1, 8]: 9
8	27	C=C1c2cccc(O)c2C(=O)C2=C(O)[C@]3(O)C(=O)C(C(N)=O)=C(O)[C@@H](N(C)C)[C@@H]3[C@@H](O)[C@H]12 [metacycline HCl]	Inhibition factor (IF) [1, 8]: 3
3	8	CN(C)c1ccc(O)c2c1C[C@H]1C[C@H]3[C@H](N(C)C)C(O)=C(C(N)=O)C(=O)[C@@]3(O)C(O)=C1C2=O [minocycline HCl]	inhibition of gelatinase B on zymography [5]: inhibits gelatinase B in a dose-dependent way
3	9	α-apooxytetracycline base	
	3	β-apooxytetracycline base	
